Reference: patent publication US20160137982A1, “P38 MAPK INHIBITOR-CONTAINING MEDIUM AND METHOD FOR OSTEOGENIC DIFFERENTIATION” (TAMPEREEN YLIOPISTO, priority 2013, published 2016)

How the values were obtained:
[1] = system: human adipose stem cells (hASCs); test: Quantitative alkaline phosphatase (ALP) activity of hASCs, normalized to DNA, as early osteogenic marker; assay type: cell-based
Procedure: (§1) The study was conducted in accordance with the ethics committee of the Pirkanmaa Hospital District, Tampere, Finland (R03058). ASCs were isolated from subcutaneous adipose tissue samples obtained with written informed consent from 4 female donors (age, 44±7 years) undergoing elective surgical procedures in the Department of Plastic Surgery, Tampere University Hospital, Tampere, Finland. Isolation of hASCs from adipose tissue samples was carried out by using a mechanical and enzymatic method. The adipose tissue was minced manually into small fragments and digested with collagenase NB 6 GMP Grade (SERVA Electrophoresis GmbH, Heidelberg, Germany) in a water bath at 37° C. under shaking conditions. The digested tissue was centrifuged and filtered in sequential steps through a 100-μm poresize filter to separate the ASCs from the surrounding tissue. Cells were expanded in T75 flasks and passaged after reaching 80% confluency. Expansion was done in DMEM/F-12 1:1 (Life Technologies, Gibco, Carlsbad, Calif., USA) supplemented with 1% l-analyl-l-glutamine (GlutaMAX I; Life Technologies, Gibco), 1% antibiotics (p/s; 100 U/ml penicillin, 0.1 mg/ml streptomycin; Lonza, BioWittaker, Verviers, Belgium) and 10% HS (PAA Laboratories). ASCs were detached by using TrypLE Select (LifeTechnologies, Gibco). Cell surface marker profile (FIG. 1) was analyzed using flow cytometry (FACSAria; BD Biosciences, Erembodegem, Belgium) as described in Patrikoski et al (2013).
The effect obtainable with the present medium and method was studied experimentally. The differentiation into osteogenic cells was analysed following alkaline phosphatase (ALP) as early osteogenic marker and mineralization as a marker for advanced osteogenic process. FIG. 2 illustrates protein expression of alkaline phosphatase (ALP) analysis in various media. Results have been normalized to the amount of DNA. BM denotes basal medium, SB a p38 MAP kinase inhibitor SB 202190 and OM an osteogenic medium. In FIG. 2A these differentiation media results (BM+SB and OM) were compared against BM as a control. In FIG. 2B and 2C results from two cell lines from different patients were analyzed in two time points (after 7 and 14 days) to show the independence on the source (patient-lines) of the present medium and inter-patient predictability in that sense. In these experiments, SB was used in a concentration of 2 μM.
In further experiments, the effect of a concentration gradient of two different p38 MAPK inhibitors, i.e. SB 202190 and JX401, on osteogenic differentiation of hASCs was analysed. First, the effect of SB202190 inhibitor in a concentration range of 2 to 10 μM on hASCs was studied in BM culture conditions. […] In this case, the analysis was performed both in BM and osteogenic medium (OM).
(§2) In the above experiments, the basal medium used was DMEM/F12+5% HSPaa serum. Said p38 MAP kinase inhibitor SB 202190 was from SigmaAldrich, while JX401 was from Calbiochem. Osteogenic medium representing the state of the art, was a base medium supplemented with L-ascorbic acid-2phosphate (AsAP), β-glycerolphosphate, and dexamethasone.

[2] = system: human adipose stem cells (hASCs); test: Quantitative Alizarin Red mineralization assay of hASCs; assay type: cell-based; details: for peak concentration (Alizarin Red mineralization): 2 or 5 μM tested
Procedure: as §1
FIG. 3 represents quantitated Alizarin Red mineralization analysis of ASCs in basal medium, osteogenic medium, with and without SB inhibitor (2 μM) in time point 21 days.
To analyze how p38MAPK inhibitors affect the progression of osteogenic differentiation, Alizarin Red mineralization assay was performed both in BM and OM conditions. In both culture conditions, SB202190 inhibitor peaked at the concentration of 2 μM, but in OM also 5 μM was functional (FIG. 4C).
as §2

SMILES	ALP activity of hASCs ([1]; 2 μM in BM, days 7 and 14, patient cell line 15/12 (FIG. 4B))	functional concentration peak (ALP activity) ([1]; in BM, 2/5/10 μM tested, days 7 and 14, patient cell line 15/12 (FIG. 4B))	most effective concentration (ALP activity) ([1]; in OM, 2/5/10 μM tested, days 7 and 14, patient cell line 15/12 (FIG. 4B))	Alizarin Red mineralization with and without inhibitor ([2]; 2 μM, day 21, patient cell line 41/12 (FIG. 3))	Alizarin Red mineralization ([2]; 5 μM in OM, day 14, patient cell line 11/13 (FIG. 4C))	peak concentration (Alizarin Red mineralization) ([2]; in BM, day 14, patient cell line 11/13 (FIG. 4C))	peak concentration (Alizarin Red mineralization) ([2]; in OM, day 14, patient cell line 11/13 (FIG. 4C))	ALP activity of hASCs ([1]; 2 μM in BM, day 14, patient cell line 1/13 (FIG. 4A))	osteogenic differentiation (ALP) in basal medium compared with osteogenic medium ([1]; 2 μM inhibitor in BM vs OM)	detection of alkaline phosphatase marker / differentiation across patient cell lines ([1]; 2 μM inhibitor, days 7 and 14, different patient cell lines)	ALP activity of hASCs ([1]; 5 μM in BM, day 14, patient cell line 1/13 (FIG. 4A))	ALP activity of hASCs ([1]; 10 μM in BM, day 14, patient cell line 1/13 (FIG. 4A))
COc1cc(SC)ccc1C(=O)N1CCC(Cc2ccccc2)CC1 [JX401, 1-[2-Methoxy-4-(methylthio)benzoyl]-4-benzylpiperidine]	effective as compared to the highest concentration	5 µM	2 µM									
Oc1ccc(-c2nc(-c3ccc(F)cc3)c(-c3ccncc3)[nH]2)cc1 [SB202190, 4-(4-Fluorophenyl)-2-(4-hydroxyphenyl)-5-(4-pyridyl)-1H-imidazole]				enhancer of advanced processes of osteogenesis	functional	2 µM	2 µM	clearly enhanced	almost equal level as with use of osteogenic medium	detected in every patient cell line	clearly enhanced	diminished compared to the other two concentrations
